Consider 1 compound from PMC5218480 (PLoS ONE, 2017).

In the assay the test system is MV-4-11 cells. As to the kind of experiment: Gene expression microarray analysis (Affymetrix PrimeView) and GSEA. The format is cell-based, human. Further details: RFU PODN (11730768_x_at) / Fold change /veh PODN (11730768_x_at) / RFU LINC00158 (11744669_a_at) / Fold change /veh LINC00158 (11744669_a_at) / RFU DUSP10 (11751237_a_at) / Fold change /veh DUSP10 (11751237_a_at) / RFU ID3 (11757404_x_at) / Fold change /veh ID3 (11757404_x_at) / RFU PLEKHG5 (11737974_s_at) / Fold change /veh PLEKHG5 (11737974_s_at) / RFU LRRC4B (11730491_at) / Fold change /veh LRRC4B (11730491_at) / RFU GIMAP4 (11747438_a_at) / Fold change /veh GIMAP4 (11747438_a_at) / RFU KRT8 (11758183_x_at) / Fold change /veh KRT8 (11758183_x_at) / RFU CNN1 (11734310_a_at) / Fold change /veh CNN1 (11734310_a_at) / RFU VPS37D (11726825_at) / Fold change /veh VPS37D (11726825_at) / RFU C10orf10 (11716522_x_at) / Fold change /veh C10orf10 (11716522_x_at) / RFU KIR2DL2 /// KIR2DL4 /// KIR2DL5A /// KIR2DL5B /// KIR2DS1 /// KIR2DS2 /// KIR2DS3 /// KIR2DS4 /// KIR3DL3 /// KIR3DL3 /// KIR3DS1 (11738374_at) / Fold change /veh KIR2DL2 /// KIR2DL4 /// KIR2DL5A /// KIR2DL5B /// KIR2DS1 /// KIR2DS2 /// KIR2DS3 /// KIR2DS4 /// KIR3DL3 /// KIR3DL3 /// KIR3DS1 (11738374_at) / RFU C1QL1 (11718748_at) / Fold change /veh C1QL1 (11718748_at) / RFU TMPRSS4 (11747572_a_at) / Fold change /veh TMPRSS4 (11747572_a_at) / RFU HAMP (11756126_x_at) / Fold change /veh HAMP (11756126_x_at) / RFU RNFT2 (11725882_a_at) / Fold change /veh RNFT2 (11725882_a_at) / RFU NR4A2 (11747474_a_at) / Fold change /veh NR4A2 (11747474_a_at) / RFU ABCC12 (11746883_a_at) / Fold change /veh ABCC12 (11746883_a_at) / RFU TMEM136 (11760407_x_at) / Fold change /veh TMEM136 (11760407_x_at) / RFU CLDN22 /// WWC2 (11732394_at) / Fold change /veh CLDN22 /// WWC2 (11732394_at) / RFU HLA-DPB1 (11760878_x_at) / Fold change /veh HLA-DPB1 (11760878_x_at) / RFU SPINT1 (11716480_a_at) / Fold change /veh SPINT1 (11716480_a_at) / RFU GAP43 (11754022_s_at) / Fold change /veh GAP43 (11754022_s_at) / RFU A4GNT (11735810_at) / Fold change /veh A4GNT (11735810_at) / RFU PRB3 (11715151_x_at) / Fold change /veh PRB3 (11715151_x_at) / RFU TUBB4B (11761932_at) / Fold change /veh TUBB4B (11761932_at) / RFU CAPN14 (11732068_a_at) / Fold change /veh CAPN14 (11732068_a_at) / RFU TMCC2 (11721928_a_at) / Fold change /veh TMCC2 (11721928_a_at) / RFU IRGQ (11745062_a_at) / Fold change /veh IRGQ (11745062_a_at) / RFU FAM174B (11720279_a_at) / Fold change /veh FAM174B (11720279_a_at) / RFU TMPRSS4 (11748680_a_at) / Fold change /veh TMPRSS4 (11748680_a_at) / RFU FAM212B (11763350_a_at) / Fold change /veh FAM212B (11763350_a_at) / RFU PLEKHG5 (11743358_a_at) / Fold change /veh PLEKHG5 (11743358_a_at) / RFU ZSCAN30 (11745921_a_at) / Fold change /veh ZSCAN30 (11745921_a_at) / RFU CMKLR1 (11741424_a_at) / Fold change /veh CMKLR1 (11741424_a_at) / RFU LOC101060620 /// MAPK8IP1 (11723275_at) / Fold change /veh LOC101060620 /// MAPK8IP1 (11723275_at) / RFU SPTSSB (11747773_x_at) / Fold change /veh SPTSSB (11747773_x_at) / RFU PRSS12 (11739890_at) / Fold change /veh PRSS12 (11739890_at) / RFU BIN1 (11741810_x_at) / Fold change /veh BIN1 (11741810_x_at) / RFU WNT11 (11732464_a_at) / Fold change /veh WNT11 (11732464_a_at) / RFU C10orf10 (11716521_a_at) / Fold change /veh C10orf10 (11716521_a_at) / RFU C5orf56 (11738089_at) / Fold change /veh C5orf56 (11738089_at) / RFU CYB561 (11721691_x_at) / Fold change /veh CYB561 (11721691_x_at) / RFU ANKRD19P (11752326_a_at) / Fold change /veh ANKRD19P (11752326_a_at) / RFU OR2T12 /// OR2T33 /// OR2T8 (11738714_s_at) / Fold change /veh OR2T12 /// OR2T33 /// OR2T8 (11738714_s_at) / RFU VCAN (11748164_a_at) / Fold change /veh VCAN (11748164_a_at) / RFU JSRP1 (11732532_at) / Fold change /veh JSRP1 (11732532_at) / RFU KRTAP10-11 (11738290_x_at) / Fold change /veh KRTAP10-11 (11738290_x_at) / RFU MYO3A (11730013_a_at) / Fold change /veh MYO3A (11730013_a_at) / RFU EBF3 (11725865_a_at) / Fold change /veh EBF3 (11725865_a_at) / RFU CAMK2N1 (11719241_x_at) / Fold change /veh CAMK2N1 (11719241_x_at) / RFU C5orf56 (11738088_a_at) / Fold change /veh C5orf56 (11738088_a_at) / RFU OLFML3 (11715873_a_at) / Fold change /veh OLFML3 (11715873_a_at) / RFU LOC100653217 /// NTM (11731650_a_at) / Fold change /veh LOC100653217 /// NTM (11731650_a_at) / RFU MAPK11 (11762145_a_at) / Fold change /veh MAPK11 (11762145_a_at) / RFU FIZ1 (11724087_x_at) / Fold change /veh FIZ1 (11724087_x_at) / RFU OASL (11726364_x_at) / Fold change /veh OASL (11726364_x_at) / RFU SOX15 (11748057_x_at) / Fold change /veh SOX15 (11748057_x_at) / RFU CD79A (11719716_a_at) / Fold change /veh CD79A (11719716_a_at) / RFU HIST1H1D (11736915_at) / Fold change /veh HIST1H1D (11736915_at) / RFU CASKIN2 (11723855_a_at) / Fold change /veh CASKIN2 (11723855_a_at) / RFU LOC730098 (11760151_x_at) / Fold change /veh LOC730098 (11760151_x_at) / RFU OR4N2 (11742367_at) / Fold change /veh OR4N2 (11742367_at) / RFU PRRT2 (11749266_a_at) / Fold change /veh PRRT2 (11749266_a_at) / RFU SNX32 (11753110_a_at) / Fold change /veh SNX32 (11753110_a_at) / RFU CDHR5 (11726645_a_at) / Fold change /veh CDHR5 (11726645_a_at) / RFU RCAN1 (11760418_a_at) / Fold change /veh RCAN1 (11760418_a_at) / RFU FAM167A (11723789_a_at) / Fold change /veh FAM167A (11723789_a_at) / RFU FAM26E (11764081_at) / Fold change /veh FAM26E (11764081_at) / RFU ISYNA1 (11749810_s_at) / Fold change /veh ISYNA1 (11749810_s_at) / RFU ACY1 (11761880_at) / Fold change /veh ACY1 (11761880_at) / RFU 11764098_at / Fold change /veh 11764098_at / RFU SAMD14 (11745864_x_at) / Fold change /veh SAMD14 (11745864_x_at) / RFU NPB (11741838_a_at) / Fold change /veh NPB (11741838_a_at) / RFU TMPRSS6 (11731388_a_at) / Fold change /veh TMPRSS6 (11731388_a_at) / RFU KRTAP10-2 (11738614_at) / Fold change /veh KRTAP10-2 (11738614_at) / RFU ARHGAP8 /// PRR5-ARHGAP8 (11727945_x_at) / Fold change /veh ARHGAP8 /// PRR5-ARHGAP8 (11727945_x_at) / RFU KRTAP5-7 /// NADSYN1 (11734609_at) / Fold change /veh KRTAP5-7 /// NADSYN1 (11734609_at) / RFU RASL12 (11751679_a_at) / Fold change /veh RASL12 (11751679_a_at) / RFU CDKN2B (11736163_a_at) / Fold change /veh CDKN2B (11736163_a_at) / RFU PRF1 (11729649_at) / Fold change /veh PRF1 (11729649_at) / RFU, ZNF638 /// ZNF638-IT1 / Fold change vs veh, ZNF638 /// ZNF638-IT1 / RFU, PANK3 / Fold change vs veh, PANK3 / RFU, SH3YL1 / Fold change vs veh, SH3YL1 / RFU, ZEB2 / Fold change vs veh, ZEB2 / RFU, NRIP1 / Fold change vs veh, NRIP1 / RFU, PTTG1IP / Fold change vs veh, PTTG1IP / RFU, CAPN2 / Fold change vs veh, CAPN2 / RFU, MED14 / Fold change vs veh, MED14 / RFU, SNORA58 / Fold change vs veh, SNORA58 / RFU, C1orf63 / Fold change vs veh, C1orf63 / RFU, LRRFIP1 / Fold change vs veh, LRRFIP1 / RFU, NDUFAF7 / Fold change vs veh, NDUFAF7 / RFU, SLC12A2 / Fold change vs veh, SLC12A2 / RFU, IBTK / Fold change vs veh, IBTK / RFU, ESF1 / Fold change vs veh, ESF1 / Fold change vs veh, TMEM50B / RFU, TAOK1 / Fold change vs veh, TAOK1 / RFU, ACBD3 / Fold change vs veh, ACBD3 / RFU, TMA16 / Fold change vs veh, TMA16 / RFU, RWDD3 / Fold change vs veh, RWDD3 / RFU, BCAT1 / Fold change vs veh, BCAT1 / RFU, EDEM3 / Fold change vs veh, EDEM3 / RFU, TMEM33 / Fold change vs veh, TMEM33 / RFU, WDR75 / Fold change vs veh, WDR75 / RFU, AHCTF1 / Fold change vs veh, AHCTF1 / RFU, TFRC / Fold change vs veh, TFRC / RFU, ZDHHC17 / Fold change vs veh, ZDHHC17 / RFU, NOM1 / Fold change vs veh, NOM1 / RFU, ARL8B / Fold change vs veh, ARL8B / RFU, ZBTB11 / Fold change vs veh, ZBTB11 / RFU, TAMM41 / Fold change vs veh, TAMM41 / RFU, KIAA1704 /// LOC100996395 / Fold change vs veh, KIAA1704 /// LOC100996395 / RFU, ING1 / Fold change vs veh, ING1 / RFU, TRMT61B / Fold change vs veh, TRMT61B / RFU, FUBP3 / Fold change vs veh, FUBP3 / RFU, TP53 / Fold change vs veh, TP53 / RFU, TNKS2 / Fold change vs veh, TNKS2 / RFU, ZFP14 / Fold change vs veh, ZFP14 / RFU, ACTR2 / Fold change vs veh, ACTR2 / RFU, PPP3R1 / Fold change vs veh, PPP3R1 / RFU, PIK3R1 / Fold change vs veh, PIK3R1 / RFU, HNRNPA1 / Fold change vs veh, HNRNPA1 / RFU, RNF170 / Fold change vs veh, RNF170 / RFU, ZNF28 / Fold change vs veh, ZNF28 / RFU, RNGTT / Fold change vs veh, RNGTT / RFU, OGT / Fold change vs veh, OGT / RFU, BRD1 / Fold change vs veh, BRD1 / RFU, MARS / Fold change vs veh, MARS / RFU, ZNF655 / Fold change vs veh, ZNF655 / RFU, FAHD1 / Fold change vs veh, FAHD1 / RFU, BDP1 / Fold change vs veh, BDP1 / RFU, LRRCC1 / Fold change vs veh, LRRCC1 / RFU, ARID1A / Fold change vs veh, ARID1A / RFU, ZNF146 / Fold change vs veh, ZNF146 / RFU, ZNF330 / Fold change vs veh, ZNF330 / RFU, GPN3 / Fold change vs veh, GPN3 / RFU, C9orf123 / Fold change vs veh, C9orf123 / RFU, N4BP2L2 / Fold change vs veh, N4BP2L2 / RFU, ARFIP1 / Fold change vs veh, ARFIP1 / RFU, FAM179B / Fold change vs veh, FAM179B / RFU, BCL10 / Fold change vs veh, BCL10 / RFU, UHRF1BP1L / Fold change vs veh, UHRF1BP1L / RFU, BET1 / Fold change vs veh, BET1 / RFU, CNOT2 / Fold change vs veh, CNOT2 / RFU, ZNF268 / Fold change vs veh, ZNF268 / Fold change vs veh, ZNF507 / RFU, DGCR2 / Fold change vs veh, DGCR2 / RFU, WDSUB1 / Fold change vs veh, WDSUB1 / Fold change vs veh, HSP90B1 /// MIR3652 / RFU, ADSS / Fold change vs veh, ADSS / RFU, GK / Fold change vs veh, GK / RFU, ZNF148 / Fold change vs veh, ZNF148 / RFU, TAF9 / Fold change vs veh, TAF9 / RFU, SLC1A5 / Fold change vs veh, SLC1A5 / RFU, SLMO2 / Fold change vs veh, SLMO2 / RFU, ABCC4 / Fold change vs veh, ABCC4 / RFU, LOC101060439 /// RAP1B / Fold change vs veh, LOC101060439 /// RAP1B / RFU, RFX7 / Fold change vs veh, RFX7 / RFU, GTPBP10 / Fold change vs veh, GTPBP10 / RFU, CNEP1R1 / Fold change vs veh, CNEP1R1 / RFU, BIVM-ERCC5 /// ERCC5 / Fold change vs veh, BIVM-ERCC5 /// ERCC5 / RFU, ILF3 / Fold change vs veh, ILF3 / RFU 11762660_at / Fold change /veh 11762660_at / RFU VCAN (11757783_s_at) / Fold change /veh VCAN (11757783_s_at) / RFU DDX43 (11728927_at) / Fold change /veh DDX43 (11728927_at) / RFU KRT8 (11758188_x_at) / Fold change /veh KRT8 (11758188_x_at) / RFU NKD1 (11759106_at) / Fold change /veh NKD1 (11759106_at) / RFU SRD5A1 (11742802_a_at) / Fold change /veh SRD5A1 (11742802_a_at) / RFU TPSAB1 /// TPSB2 (11721975_s_at) / Fold change /veh TPSAB1 /// TPSB2 (11721975_s_at) / RFU GSTM3 (11746129_a_at) / Fold change /veh GSTM3 (11746129_a_at) / RFU IL23R (11737362_x_at) / Fold change /veh IL23R (11737362_x_at) / RFU TMEM51 (11727254_a_at) / Fold change /veh TMEM51 (11727254_a_at) / RFU PIWIL2 (11732686_x_at) / Fold change /veh PIWIL2 (11732686_x_at) / RFU ORM1 (11744905_x_at) / Fold change /veh ORM1 (11744905_x_at) / RFU CCDC152 (11743942_at) / Fold change /veh CCDC152 (11743942_at) / RFU ECM1 (11717891_a_at) / Fold change /veh ECM1 (11717891_a_at) / RFU IL23R (11748794_a_at) / Fold change /veh IL23R (11748794_a_at) / RFU TNFAIP8L3 (11732012_x_at) / Fold change /veh TNFAIP8L3 (11732012_x_at) / RFU MBOAT4 (11741988_at) / Fold change /veh MBOAT4 (11741988_at) / RFU 11764193_at / Fold change /veh 11764193_at / RFU TMEM53 (11763286_at) / Fold change /veh TMEM53 (11763286_at) / RFU MAGEB2 (11727129_at) / Fold change /veh MAGEB2 (11727129_at) / RFU TMEM200A (11744735_a_at) / Fold change /veh TMEM200A (11744735_a_at) / RFU CCDC152 (11751479_a_at) / Fold change /veh CCDC152 (11751479_a_at) / RFU FAM211A (11726209_a_at) / Fold change /veh FAM211A (11726209_a_at) / RFU RGS16 (11746705_a_at) / Fold change /veh RGS16 (11746705_a_at) / RFU VCAN (11755009_s_at) / Fold change /veh VCAN (11755009_s_at) / RFU RHOB (11743442_s_at) / Fold change /veh RHOB (11743442_s_at) / RFU RGS16 (11720943_a_at) / Fold change /veh RGS16 (11720943_a_at) / RFU RGS16 (11720944_at) / Fold change /veh RGS16 (11720944_at) / RFU, VPS4B / Fold change vs veh, VPS4B / RFU, CREB1 / Fold change vs veh, CREB1 / RFU, DNAJC13 / Fold change vs veh, DNAJC13 / RFU, GNAQ / Fold change vs veh, GNAQ / RFU, CDK5R1 / Fold change vs veh, CDK5R1 / RFU, ZRANB3 / Fold change vs veh, ZRANB3 / RFU, CUL4A / Fold change vs veh, CUL4A / RFU, CCNY / Fold change vs veh, CCNY / RFU, UFL1 / Fold change vs veh, UFL1 / RFU, COG3 / Fold change vs veh, COG3 / RFU, DIAPH2 / Fold change vs veh, DIAPH2 / RFU, SKA2 / Fold change vs veh, SKA2 / RFU, AFF3 / Fold change vs veh, AFF3 / RFU, LMF1 / Fold change vs veh, LMF1 / RFU, IPO11 / Fold change vs veh, IPO11 / RFU, DFFB / Fold change vs veh, DFFB / RFU, FOXP1 / Fold change vs veh, FOXP1 / RFU, CARD8 / Fold change vs veh, CARD8 / RFU, STRN3 / Fold change vs veh, STRN3 / RFU, ADK / Fold change vs veh, ADK / RFU, RASSF2 / Fold change vs veh, RASSF2 / RFU, WIPF1 / Fold change vs veh, WIPF1 / RFU, LARP1B / Fold change vs veh, LARP1B / RFU, RASA1 / Fold change vs veh, RASA1 / RFU, RB1 / Fold change vs veh, RB1 / RFU, PPFIA1 / Fold change vs veh, PPFIA1 / RFU, MAT2A / Fold change vs veh, MAT2A / RFU, CCT5 / Fold change vs veh, CCT5 / RFU, WDR92 / Fold change vs veh, WDR92 / RFU, CUX1 / Fold change vs veh, CUX1 / RFU, TTC7A / Fold change vs veh, TTC7A / RFU, TMEM135 / Fold change vs veh, TMEM135 / RFU, DEPTOR / Fold change vs veh, DEPTOR / RFU, CPM / Fold change vs veh, CPM / RFU, DNAJB6 / Fold change vs veh, DNAJB6 / RFU, CACNA2D3 / Fold change vs veh, CACNA2D3 / RFU, DTX4 / Fold change vs veh, DTX4 / RFU, TFCP2 / Fold change vs veh, TFCP2 / RFU, GMCL1 /// GMCL1P1 / Fold change vs veh, GMCL1 /// GMCL1P1 / RFU, AEBP2 / Fold change vs veh, AEBP2 / RFU, SNHG1 /// SNORD22 /// SNORD25 /// SNORD26 /// SNORD27 /// SNORD28 /// SNORD29 /// SNORD31 / Fold change vs veh, SNHG1 /// SNORD22 /// SNORD25 /// SNORD26 /// SNORD27 /// SNORD28 /// SNORD29 /// SNORD31 / Fold change (Aza/veh), C12orf56 (ProbeSet 11735607_a_at) / Fold change (ACY-1035/veh), C12orf56 (ProbeSet 11735607_a_at) / Fold change (Aza/veh), FGFR1OP (ProbeSet 11751329_s_at) / Fold change (ACY-1035/veh), FGFR1OP (ProbeSet 11751329_s_at) / Fold change (Aza/veh), VPS36 (ProbeSet 11739960_a_at) / Fold change (ACY-1035/veh), VPS36 (ProbeSet 11739960_a_at) / RFU SYPL1 (11715823_x_at) / Fold change /veh SYPL1 (11715823_x_at) / RFU IGFBP7 (11715501_s_at) / Fold change /veh IGFBP7 (11715501_s_at) / RFU REEP3 (11722064_at) / Fold change /veh REEP3 (11722064_at) / RFU IGLL1 (11728026_x_at) / Fold change /veh IGLL1 (11728026_x_at): dose or concentration left out as unconfirmed. To be noted: ProbeSet 11724526_at; LIST B.

On to `Nc1ncn([C@@H]2O[C@H](CO)[C@@H](O)[C@H]2O)c(=O)n1` [azacitidine], for which the “RFU, FAHD1” value is listed as 119.69 RFU.
